Reference: US6057364A, “Fluoro-substituted adamantane derivatives” (Pfizer Inc, priority 1998, dated 2000)

Assay: metabolic stability in liver microsomes (standard microsomal incubation, LC/MS)
Type: in vitro ADME
Settings: 10 μM compound, 0.2 μM microsomal cytochrome P450, pH 7.4, 37° C, read-out: % Loss (amount of compound that was metabolically degraded)
Method: The metabolic stability of the active compounds may be assessed according to the following procedure. A standard microsomal incubation condition is prepared for assessing the rate of metabolism of the active compound in liver microsomes. The microsomal incubation condition comprises 100 mM potassium phosphate buffer (pH 7.4), 10 mM MgCl2, 0.5 mM NADP^+ (nicotinamide adenine dinucleotide phosphate) 4 mM glucose 6 phosphate, 10 unit/mL glucose 6 phosphate dehydrogenase, 0.2 μM microsomal cytochrome P450, and 10 μM active compound. The incubation is started by adding substrate to the reaction mixture that has been preincubated for approximately 3 minutes at 37° C. An aliquot is removed at 0, 1, 2, 5, 10, and 20 minute time points and added to an equal volume of methanol to quench the reaction. The precipitate in the samples is removed by centrifugation and the supernatants are stored at -20° C. The samples are analyzed by standard LC/MS to determine the amount of active compound that has been metabolically degraded.
The compounds illustrated in the chemical formula provided for the Table above were prepared as described in PCT published patent application WO 95/29909, which was published Nov. 9, 1995, entitled "Novel Acyclic And Cyclic Amides As Neurotransmitter Release Enhancers." The compounds illustrated above are pharmaceutically active compounds that enhance the release of neurotransmitters such as acetylcholine, dopamine and serotonin, and therefore are useful for treating Alzheimer's disease, age-associated memory impairment, Parkinson's disease and other central nervous system disorders in mammals, in particular humans. The metabolic stability of the above compounds was assessed according to the procedure described above. The metabolic stability of the above compounds is provided in the above table in the column marked "% Loss" which indicates the amount of compound that was metabolically degraded after 10 minutes in a standard microsomal incubation condition which was prepared as described above.

| Compound | metabolised at 10 min, 10 µM |
| --- | --- |
| O=C1CC(Cc2ccncc2)(Cc2ccncc2)C(=O)N1C12CC3(F)CC(F)(CC(F)(C3)C1)C2 [F F F] | 10% |
| O=C1CC(Cc2ccncc2)(Cc2ccncc2)C(=O)N1C12CC3CC(F)(CC(F)(C3)C1)C2 [F F H] | 75% |
| O=C1CC(Cc2ccncc2)(Cc2ccncc2)C(=O)N1C12CC3CC(CC(F)(C3)C1)C2 [F H H] | 75% |
| O=C1CC(Cc2ccncc2)(Cc2ccncc2)C(=O)N1C12CC3CC(CC(C3)C1)C2 [H H H, reference compound] | > 75% |
